From paper PMC7504677, “Impact of N-Alkylamino Substituents on Serotonin Receptor (5-HTR) Affinity and Phosphodiesterase 10A (PDE10A) Inhibition of Isoindole-1,3-dione Derivatives” (Molecules, 2020)

What was measured:
PDE10A = PDE10A (Homo sapiens, UniProt Q9Y233); test: luminescence PDE inhibition assay (PDElight HTS cAMP phosphodiesterase assay kit); assay type: biochemical; details: for inhibition at 3 µM / inhibition at 10 µM: 1 h, percentage of inhibition respective to vehicle control (DMSO); for IC50: SEM of three independent experiments performed in duplicate
Experimental: Test and reference compounds were dissolved in dimethyl sulfoxide (DMSO) at a concentration of 1 mM and further diluted in assay buffer in order to obtain the final concentration of compounds: 10 µM and 3 µM, respectively. All reactions were carried out at 37 °C in white, half-area 96-well plates (Perkin Elmer, Waltham, MA, USA). The inhibition of PDE 10A enzyme was measured using the PDElight HTS cAMP phosphodiesterase assay kit (Lonza) according to the manufacturer’s recommendations. 2.5 U of PDE 10A enzyme was preincubated either with DMSO (vehicle control) or compound for 20 min before incubation with the substrate, cAMP (final concentration 1.25 µM), for 1 h. Then, PDELight AMP Detection Reagent was added. After 10 min incubation, the luminescence was measured in a multifunction plate reader (POLARstar Omega, BMG Labtech, Ortenberg, Germany).

5-HT1A receptor = target: T1, 5-HT1A receptor (Homo sapiens, UniProt P08908); test: radioligand binding assay, [3H]8-OH-DPAT; details: read-out: 5-HT1A 1 µM ± SEM (% of control specific binding)
T1 sequence (P08908 1-422): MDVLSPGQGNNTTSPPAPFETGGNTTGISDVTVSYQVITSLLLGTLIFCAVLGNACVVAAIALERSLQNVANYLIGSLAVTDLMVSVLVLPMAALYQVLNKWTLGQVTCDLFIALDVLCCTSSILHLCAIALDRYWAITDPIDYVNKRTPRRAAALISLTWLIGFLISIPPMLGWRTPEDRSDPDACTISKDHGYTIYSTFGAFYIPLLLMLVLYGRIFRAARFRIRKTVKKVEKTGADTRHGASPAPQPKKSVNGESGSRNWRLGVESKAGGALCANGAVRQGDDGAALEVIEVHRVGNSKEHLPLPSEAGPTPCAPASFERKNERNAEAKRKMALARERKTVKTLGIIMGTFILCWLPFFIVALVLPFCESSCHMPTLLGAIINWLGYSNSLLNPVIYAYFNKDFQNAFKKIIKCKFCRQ
Experimental: (§1) Briefly: binding experiments were conducted in 96-well microplates in a total final volume of 250 μL of appropriate buffers. Reaction mix included 50 μL solution of test compound, 50 μL of radioligand ([^3H]8-OH-DPAT for 5-HT1A, and [^3H]-LSD for 5-HT7, respectively) and 150 μL of diluted membranes (see description and Table S2 in Supporting Materials). Specific assay conditions for each receptor are described elsewhere. The radioactivity was measured in a MicroBeta2 scintillation counter (PerkinElmer, USA). Each compound was tested in the assay as duplicate samples at 1 µM final concentrations. Results were expressed as percent inhibition of specific binding.

5-HT7 receptor = 5-HT7 receptor (Homo sapiens, UniProt P34969); test: radioligand binding assay, [3H]-LSD; details: read-out: 5-HT7 1 µM ± SEM (% of control specific binding)
Experimental: as §1

Chain of PDE10A (Q9Y233 whole entry, species assumed): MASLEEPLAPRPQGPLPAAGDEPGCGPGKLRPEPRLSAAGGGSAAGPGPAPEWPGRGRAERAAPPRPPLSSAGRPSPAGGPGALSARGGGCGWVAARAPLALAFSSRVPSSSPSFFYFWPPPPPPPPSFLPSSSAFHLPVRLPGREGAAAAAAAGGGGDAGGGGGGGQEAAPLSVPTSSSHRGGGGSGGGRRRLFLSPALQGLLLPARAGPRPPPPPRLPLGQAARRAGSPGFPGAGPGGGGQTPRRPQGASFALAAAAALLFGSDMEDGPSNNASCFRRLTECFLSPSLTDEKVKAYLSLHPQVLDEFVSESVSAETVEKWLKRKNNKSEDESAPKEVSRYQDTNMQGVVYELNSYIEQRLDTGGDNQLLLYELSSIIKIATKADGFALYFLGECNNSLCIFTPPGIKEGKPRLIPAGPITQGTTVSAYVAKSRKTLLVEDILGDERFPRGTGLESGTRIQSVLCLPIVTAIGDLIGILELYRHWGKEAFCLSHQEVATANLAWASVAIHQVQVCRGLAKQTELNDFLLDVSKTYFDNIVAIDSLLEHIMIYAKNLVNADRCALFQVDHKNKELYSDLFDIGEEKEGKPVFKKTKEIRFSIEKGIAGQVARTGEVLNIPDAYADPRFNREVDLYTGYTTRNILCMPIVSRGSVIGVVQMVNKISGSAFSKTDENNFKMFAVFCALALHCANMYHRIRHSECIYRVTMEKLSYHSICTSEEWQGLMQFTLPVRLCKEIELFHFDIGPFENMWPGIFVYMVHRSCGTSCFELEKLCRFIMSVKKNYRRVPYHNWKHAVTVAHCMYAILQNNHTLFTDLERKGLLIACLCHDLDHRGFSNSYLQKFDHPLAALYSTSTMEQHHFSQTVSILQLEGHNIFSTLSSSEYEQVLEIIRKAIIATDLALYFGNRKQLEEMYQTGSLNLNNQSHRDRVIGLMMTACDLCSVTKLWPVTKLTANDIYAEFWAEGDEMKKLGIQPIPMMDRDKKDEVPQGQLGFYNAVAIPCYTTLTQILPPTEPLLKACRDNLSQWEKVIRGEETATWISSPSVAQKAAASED
Chain of 5-HT7 receptor (P34969 whole entry): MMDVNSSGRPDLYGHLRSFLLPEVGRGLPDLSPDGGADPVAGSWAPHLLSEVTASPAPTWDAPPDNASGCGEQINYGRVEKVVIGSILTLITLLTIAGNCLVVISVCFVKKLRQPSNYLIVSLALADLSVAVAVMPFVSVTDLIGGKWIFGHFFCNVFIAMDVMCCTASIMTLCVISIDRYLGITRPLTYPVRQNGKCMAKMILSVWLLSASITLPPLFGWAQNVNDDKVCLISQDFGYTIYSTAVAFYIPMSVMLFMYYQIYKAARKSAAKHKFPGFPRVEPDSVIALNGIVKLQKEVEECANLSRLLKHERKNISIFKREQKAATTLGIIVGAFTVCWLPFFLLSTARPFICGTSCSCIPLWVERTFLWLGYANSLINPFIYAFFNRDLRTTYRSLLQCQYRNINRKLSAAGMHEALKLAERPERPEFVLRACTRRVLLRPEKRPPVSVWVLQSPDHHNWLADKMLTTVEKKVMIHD

For `COc1cccc2c1C(=O)N(CCCCCc1nc3ccccc3[nH]1)C2=O` [Compound 19, 2-[5-(1H-Benzimidazol-2-yl)pentyl]-4-methoxy-1H-isoindole-1,3(2H)-dione], the inhibition at 3 µM (PDE10A) was 52%, the inhibition at 10 µM (PDE10A) was 75% and the IC50 (PDE10A) was 4.31 ± 0.365 µM. The inhibition at 1 µM (5-HT1A receptor) was 28 ± 2%, the inhibition at 1 µM (5-HT7 receptor) was 6% and the melting point was 108 to 109 °C.

Work on `O=C1c2ccccc2C(=O)N1CCc1nc2ccccc2[nH]1` [Compound 20, 2-[2-(1H-Benzimidazol-2-yl)ethyl]-1H-isoindole-1,3(2H)-dione] yielded an inhibition at 3 µM (PDE10A) of 0%, an inhibition at 10 µM (PDE10A) of 1% and an inhibition at 1 µM (5-HT1A receptor) of 26 ± 2%. For the same molecule, the inhibition at 1 µM (5-HT7 receptor) was 36% and the melting point was 202 to 203 °C.

`COc1cc2c(cc1OC)CN(CCCN1C(=O)c3cccc(OC)c3C1=O)CC2` [Compound 6, 2-[3-(6,7-Dimethoxy-3,4-dihydroisoquinolin-2(1H)-yl)propyl]-4-methoxy-1H-isoindole-1,3(2H)-dione] showed an inhibition at 3 µM (PDE10A) of 0%, an inhibition at 10 µM (PDE10A) of 0% and an inhibition at 1 µM (5-HT1A receptor) of 32 ± 4%. It also gave an inhibition at 1 µM (5-HT7 receptor) of 0% and a melting point of 107 to 109 °C.

Work on `COc1cccc2c1C(=O)N(Cc1ccccc1)C2=O` [Compound 9, 2-Benzyl-4-methoxy-1H-isoindole-1,3(2H)-dione] yielded an inhibition at 3 µM (PDE10A) of 0%, an inhibition at 10 µM (PDE10A) of 0% and an inhibition at 1 µM (5-HT1A receptor) of 6 ± 2%. It also gave an inhibition at 1 µM (5-HT7 receptor) of 0% and a melting point of 167 to 168 °C.

`O=C1c2ccccc2C(=O)N1CCCc1nc2ccccc2[nH]1` [Compound 21, 2-[3-(1H-Benzimidazol-2-yl)propyl]-1H-isoindole-1,3(2H)-dione] showed an inhibition at 3 µM (PDE10A) of 16%, an inhibition at 10 µM (PDE10A) of 45% and an inhibition at 1 µM (5-HT1A receptor) of 27 ± 2%. It also gave an inhibition at 1 µM (5-HT7 receptor) of 14 ± 2% and a melting point of 190 to 191 °C.

`COc1cccc2c1C(=O)N(CCc1ccccc1)C2=O` [Compound 12, 4-Methoxy-2-(2-phenylethyl)-1H-isoindole-1,3(2H)-dione] gave an inhibition at 3 µM (PDE10A) of 5%, an inhibition at 10 µM (PDE10A) of 10% and an inhibition at 1 µM (5-HT1A receptor) of 13 ± 2%. The inhibition at 1 µM (5-HT7 receptor) was 0% and the melting point was 123 to 124 °C.

`COc1cccc2c1C(=O)N(Cc1ccccn1)C2=O` [Compound 10, 4-Methoxy-2-(pyridin-2-ylmethyl)-1H-isoindole-1,3(2H)-dione] showed an inhibition at 3 µM (PDE10A) of 0%, an inhibition at 10 µM (PDE10A) of 0% and an inhibition at 1 µM (5-HT1A receptor) of 10 ± 1%. It also gave an inhibition at 1 µM (5-HT7 receptor) of 0% and a melting point of 144 to 145 °C.

`COc1cccc2c1C(=O)N(CCCc1ccccc1)C2=O` [Compound 16, 4-Methoxy-2-(3-phenylpropyl)-1H-isoindole-1,3(2H)-dione] showed an inhibition at 3 µM (PDE10A) of 11%, an inhibition at 10 µM (PDE10A) of 13% and an inhibition at 1 µM (5-HT1A receptor) of 32 ± 3%. For the same molecule, the inhibition at 1 µM (5-HT7 receptor) was 14% and the melting point was 94 to 95 °C.

`COc1cccc2c1C(=O)N(CCCc1nc3ccccc3[nH]1)C2=O` [Compound 17, 2-[3-(1H-Benzimidazol-2-yl)propyl]-4-methoxy-1H-isoindole-1,3(2H)-dione] gave an inhibition at 3 µM (PDE10A) of 73%, an inhibition at 10 µM (PDE10A) of 86% and an IC50 (PDE10A) of 1.001 ± 0.009 µM. It also gave an inhibition at 1 µM (5-HT1A receptor) of 16 ± 5%, an inhibition at 1 µM (5-HT7 receptor) of 10 ± 3% and a melting point of 217 to 218 °C.

In the case of `COc1cccc2c1C(=O)N(CCN1CCC3CCCCC3C1)C2=O` (centres unmarked) [Compound 5, 2-[2-(Octahydroisoquinolin-2(1H)-yl)ethyl]-4-methoxy-1H-isoindole-1,3(2H)-dione], the inhibition at 3 µM (PDE10A) is reported as 0%, the inhibition at 10 µM (PDE10A) is reported as 0% and the inhibition at 1 µM (5-HT1A receptor) is reported as 25 ± 3%. The inhibition at 1 µM (5-HT7 receptor) was 0% and the melting point was 145 to 146 °C.

Work on `COc1cccc2c1C(=O)N(CCCN1CCC3CCCCC3C1)C2=O` (centres unmarked) [Compound 8, 2-[3-(Octahydroisoquinolin-2(1H)-yl)propyl]-4-methoxy-1H-isoindole-1,3(2H)-dione] yielded an inhibition at 3 µM (PDE10A) of 7%, an inhibition at 10 µM (PDE10A) of 7% and an inhibition at 1 µM (5-HT1A receptor) of 28 ± 3%. The inhibition at 1 µM (5-HT7 receptor) was 0% and the melting point was 103 to 104 °C.

Molecule `COc1cccc2c1C(=O)N(CCCN1CCc3ccccc3C1)C2=O` [Compound 7, 2-[3-(3,4-Dihydroisoquinolin-2(1H)-yl)propyl]-4-methoxy-1H-isoindole-1,3(2H)-dione] has an inhibition at 3 µM (PDE10A) of 18%, an inhibition at 10 µM (PDE10A) of 19% and an inhibition at 1 µM (5-HT1A receptor) of 33 ± 2%. It also gave an inhibition at 1 µM (5-HT7 receptor) of 51 ± 2% and a melting point of 92 to 93 °C.

For `COc1cc2c(cc1OC)CN(CCN1C(=O)c3cccc(OC)c3C1=O)CC2` [Compound 3, 2-[2-(6,7-Dimethoxy-3,4-dihydroisoquinolin-2(1H)-yl)ethyl]-4-methoxy-1H-isoindole-1,3(2H)-dione], the inhibition at 3 µM (PDE10A) was 0%, the inhibition at 10 µM (PDE10A) was 0% and the inhibition at 1 µM (5-HT1A receptor) was 27 ± 3%. It also gave an inhibition at 1 µM (5-HT7 receptor) of 0% and a melting point of 108 to 109 °C.

In the case of `O=C1c2ccccc2C(=O)N1CCCCCc1nc2ccccc2[nH]1` [Compound 23, 2-[5-(1H-Benzimidazol-2-yl)pentyl]-1H-isoindole-1,3(2H)-dione], the inhibition at 3 µM (PDE10A) is reported as 26%, the inhibition at 10 µM (PDE10A) is reported as 58% and the inhibition at 1 µM (5-HT1A receptor) is reported as 48 ± 3%. The inhibition at 1 µM (5-HT7 receptor) was 34 ± 2% and the melting point was 168 to 169 °C.

Molecule `COc1cccc2c1C(=O)N(Cc1nc3ccccc3[nH]1)C2=O` [Compound 11, 2-(1H-Benzimidazol-2-ylmethyl)-4-methoxy-1H-isoindole-1,3(2H)-dione] has an inhibition at 3 µM (PDE10A) of 7%, an inhibition at 10 µM (PDE10A) of 15% and an inhibition at 1 µM (5-HT1A receptor) of 39 ± 3%. It also gave an inhibition at 1 µM (5-HT7 receptor) of 0% and a melting point of 239 to 240 °C.

For `COc1cccc2c1C(=O)N(CCc1c[nH]cn1)C2=O` [Compound 14, 2-[2-(1H-Imidazol-4-yl)ethyl]-4-methoxy-1H-isoindole-1,3(2H)-dione], the inhibition at 3 µM (PDE10A) was 0%, the inhibition at 10 µM (PDE10A) was 0% and the inhibition at 1 µM (5-HT1A receptor) was 21 ± 1%. The inhibition at 1 µM (5-HT7 receptor) was 0% and the melting point was 227 to 228 °C.

Work on `COc1cccc2c1C(=O)N(CCc1nc3ccccc3[nH]1)C2=O` [Compound 15, 2-[2-(1H-Benzimidazol-2-yl)ethyl]-4-methoxy-1H-isoindole-1,3(2H)-dione] yielded an inhibition at 3 µM (PDE10A) of 40%, an inhibition at 10 µM (PDE10A) of 70% and an IC50 (PDE10A) of 6.71 ± 0.195 µM. For the same molecule, the inhibition at 1 µM (5-HT1A receptor) was 44 ± 5%, the inhibition at 1 µM (5-HT7 receptor) was 0% and the melting point was 197 to 198 °C.

Molecule `COc1cccc2c1C(=O)N(CCN1CCc3ccccc3C1)C2=O` [Compound 4, 2-[2-(3,4-Dihydroisoquinolin-2(1H)-yl)ethyl]-4-methoxy-1H-isoindole-1,3(2H)-dione] has an inhibition at 3 µM (PDE10A) of 0%, an inhibition at 10 µM (PDE10A) of 0% and an inhibition at 1 µM (5-HT1A receptor) of 12 ± 4%. It also gave an inhibition at 1 µM (5-HT7 receptor) of 0% and a melting point of 157 to 158 °C.

`O=C1c2ccccc2C(=O)N1CCCCc1nc2ccccc2[nH]1` [Compound 22, 2-[4-(1H-Benzimidazol-2-yl)butyl]-1H-isoindole-1,3(2H)-dione] showed an inhibition at 3 µM (PDE10A) of 47%, an inhibition at 10 µM (PDE10A) of 73% and an IC50 (PDE10A) of 5.65 ± 0.495 µM. The inhibition at 1 µM (5-HT1A receptor) was 20 ± 3%, the inhibition at 1 µM (5-HT7 receptor) was 15 ± 2% and the melting point was 179 to 180 °C.

In the case of `COc1cccc2c1C(=O)N(CCc1ccccn1)C2=O` [Compound 13, 4-Methoxy-2-[2-(pyridin-2-yl)ethyl]-1H-isoindole-1,3(2H)-dione], the inhibition at 3 µM (PDE10A) is reported as 0%, the inhibition at 10 µM (PDE10A) is reported as 0% and the inhibition at 1 µM (5-HT1A receptor) is reported as 59 ± 4%. It also gave an inhibition at 1 µM (5-HT7 receptor) of 0% and a melting point of 155 to 157 °C.
